Values of other authors in patent US10675240B2 (priority 2014, dated 2020).

Conditions: background statement

CC1=CC[C@H]2C[C@@H]1C2(C)C [α-Pinene, (1S,5S)-2,6,6-Trimethylbicyclo[3.1.1]hept-2-ene]
human pulmonary uptake: 60%
